Assay results as given in patent publication US20190041401A1, “Methods of Treating Subjects having Severe and/or Persistent Asthma” (National Jewish Health, priority 2015, published 2019).

Columns and labels:
[1] = tested on: A549 cells; assay: Cytokine induction of IL-33R mRNA in A549 cells; format: cell-based, human; conditions: cytokine treatment for 72 hours
Procedure: (§1) FIGS. 18A-18J show the role of IL-33 in the persistence of asthma. FIG. 18A, A549 cells were cultured in medium alone or with IL-33 ([…]), IL-1b (2 ng/mL), IL-4 (10 ng/mL), IL-13 (20 ng/mL), IL-17 (10 ng/mL), TNF (2 ng/mL), IFN-γ (10 ng/mL), or IFN-γ plus TNF (same concentrations) for 72 hours, and then mRNA was analyzed for IL-33 normalized to glyceraldehyde-3-phosphate dehydrogenase (GAPDH). *P<0.05 and **P<0.01. There were 4 to 8 mice per group. FIGS. 18B-18E show the direct effect of IL-33 on airway hyperreactivity, lung ILCs, and autoinduction. […] IN, Intranasal. […] The change in RL with the 25-mg dose of methacholine is shown (n=5 per group). *P<0.05.
(§2) Immediately after flexiVent analysis, lung sections were collected in RIPA buffer (50 mmol/L Tris [pH 7.4], 150 mmol/L NaCl, 1 mmol/L EDTA, 1 mmol/L NaF, 1 mmol/L Na3VO4, and 0.1 mmol/L phenylmethylsulfonyl fluoride) containing protease and phosphatase inhibitors and homogenized. […] Cellular RNA was analyzed for mRNA for IL-33 and IL-33R. […] Cellular RNAwas analyzed for mRNA for IL-33. […] Cellular RNA was analyzed for mRNA for IL-33. In a fourth experiment cells were treated for 24 hours with IL-13 (20 ng/mL) and ATP, and the supernatant was collected and analyzed for IL-33 levels by means of ELISA, according to the manufacturer's instructions (R&D systems). […]

[2] = tested on: human lung epithelial cell line A549; assay: IL-33 mRNA induction in A549 cells (real-time PCR); format: cell-based; conditions: cytokine treatment for 72 hours, normalized to GAPDH
Procedure: as §1
Immediately after flexiVent analysis, lung sections were collected in RIPA buffer (50 mmol/L Tris [pH 7.4], 150 mmol/L NaCl, 1 mmol/L EDTA, 1 mmol/L NaF, 1 mmol/L Na3VO4, and 0.1 mmol/L phenylmethylsulfonyl fluoride) containing protease and phosphatase inhibitors and homogenized. Lysed samples were subjected to 10% SDS-PAGE, transferred to a polyvinylidene difluoride membrane, and then immunoblotted with primary antibodies (IL-33 [R&D Systems], tubulin [H-235], and b-actin [Santa Cruz Biotechnology, Dallas, Tex]). After washing, the membranes were incubated with a horseradish peroxidase-conjugated secondary antibody. After additional washing, the membranes were developed with ECL reagent, as previously described (Gorska et al. 2007). A549 cell culture A549 cells were cultured in RPMI in 10% FBS (HyClone; Thermo Scientific, Waltham, Mass.) and 1% penicillin/streptomycin (Gibco, Carlsbad, Calif.) and maintained at 378C in a humidified 5% CO2 incubator. All cytokines were purchased from PeproTech (Rocky Hill, N.J.). In one experiment cells were treated with medium, IL-1b (2 ng/mL), IL-4 (10 ng/mL), IL-13 (20 ng/mL), IL-17 (10 ng/mL), IL-33 (20 ng/mL), TNF (2 ng/mL), IFN-g (10 ng/mL), and TNF (2 ng/mL) plus IFN-g (10 ng/mL) for 72 hours. Cellular RNA was analyzed for mRNA for IL-33 and IL-33R. In a second experiment cells were pretreated for 24 hours with medium, IL-1b (2 ng/mL), IL-4 (10 ng/mL), IL-13 (20 ng/mL), IL-17 (10 ng/mL), TNF (2 ng/mL), or IFN-g (10 ng/mL) before stimulation for 72 hours with IL-33 (20 ng/mL). Cellular RNAwas analyzed for mRNA for IL-33. In a third experiment cells were treated for 24 hours with DRA (5 μg/mL dust mite, 15 μg/mL ragweed, and 5 μg/mL Aspergillus species). Cellular RNA was analyzed for mRNA for IL-33. In a fourth experiment cells were treated for 24 hours with IL-13 (20 ng/mL) and ATP, and the supernatant was collected and analyzed for IL-33 levels by means of ELISA, according to the manufacturer's instructions (R&D systems). […]

[3] = tested on: A549 cells; assay: IL-33 secretion by A549 cells (ELISA); format: cell-based, human; conditions: IL-13 20 ng/mL and ATP, overnight
Procedure: FIG. 27A, Effect of IL-13 on IL-33 secretion. A549 cells were treated overnight with medium or IL-13 (20 ng/mL) and ATP ([…]), and the released IL-33 was measured by using ELISA (n=6). *P=0.04. FIGS. 27B-27E, Direct effect of IL-33 on airway hyperreactivity and lung ILCs. C57Bl/6 mice were treated intranasally for 3 consecutive days with 400 ng per dose of IL-33. Outcome measures were evaluated 15 days after final exposure.
Immediately after flexiVent analysis, lung sections were collected in RIPA buffer (50 mmol/L Tris [pH 7.4], 150 mmol/L NaCl, 1 mmol/L EDTA, 1 mmol/L NaF, 1 mmol/L Na3VO4, and 0.1 mmol/L phenylmethylsulfonyl fluoride) containing protease and phosphatase inhibitors and homogenized. Lysed samples were subjected to 10% SDS-PAGE, transferred to a polyvinylidene difluoride membrane, and then immunoblotted with primary antibodies (IL-33 [R&D Systems], tubulin [H-235], and b-actin [Santa Cruz Biotechnology, Dallas, Tex]). […] Cellular RNA was analyzed for mRNA for IL-33 and IL-33R. […] Cellular RNAwas analyzed for mRNA for IL-33. […] Cellular RNA was analyzed for mRNA for IL-33. In a fourth experiment cells were treated for 24 hours with IL-13 (20 ng/mL) and ATP, and the supernatant was collected and analyzed for IL-33 levels by means of ELISA, according to the manufacturer's instructions (R&D systems).

[4] = tested on: A549 cells; assay: IL-33 autoinduction in A549 cells after cytokine pretreatment; format: cell-based, human; conditions: pretreated 24 hours with cytokine, then 72 hours with IL-33 (20 ng/mL)
Procedure: as §1, §2

Substance: IL-13: cytokine purchased from PeproTech, 20 ng/mL on A549 cells
- induction of IL-33R mRNA [1]: strongly induced IL-33R
- induction of IL-33 mRNA [2]: most potent inducer of IL-33 mRNA
- secretion of IL-33 [3]: stimulated secretion of IL-33
- IL-33 autoinduction after preincubation with cytokine [4]: synergistically enhanced IL-33 autoinduction
